Experimental data reported in ChEMBL document CHEMBL4325920, “Discovery of Clinical Candidate BMS-823778 as an Inhibitor of Human 11β-Hydroxysteroid Dehydrogenase Type 1 (11β-HSD-1)” (ACS Med Chem Lett, 2018).
pEC50, pIC50: −log10 of the molar value.

Columns and labels:
[1] = target: T1, Nuclear receptor subfamily 1 group I member 2 (Homo sapiens, UniProt O75469); assay: Activation of PXR (unknown origin); type: ADME
T1 sequence (O75469 whole entry): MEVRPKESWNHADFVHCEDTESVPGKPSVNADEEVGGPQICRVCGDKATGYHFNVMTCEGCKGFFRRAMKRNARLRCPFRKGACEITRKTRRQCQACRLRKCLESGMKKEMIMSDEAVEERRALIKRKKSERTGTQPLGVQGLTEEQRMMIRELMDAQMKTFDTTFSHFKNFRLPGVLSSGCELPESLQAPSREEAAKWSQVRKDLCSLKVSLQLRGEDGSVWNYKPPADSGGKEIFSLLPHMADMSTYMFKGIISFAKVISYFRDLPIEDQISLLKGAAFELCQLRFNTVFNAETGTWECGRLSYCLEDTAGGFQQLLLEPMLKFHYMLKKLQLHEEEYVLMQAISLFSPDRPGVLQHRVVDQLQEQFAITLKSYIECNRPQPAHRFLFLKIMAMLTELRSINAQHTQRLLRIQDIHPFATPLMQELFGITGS

[2] = target: 11-beta-hydroxysteroid dehydrogenase 1 (Mus musculus, UniProt P50172); assay: Inhibition of recombinant mouse 11beta-HSD1 expressed in HEK293 cell microsomes using [3H]cortisone as substrate after 4 hrs by homogeneous immuno-radiometric scintillation proximity assay
Chain of 11-beta-hydroxysteroid dehydrogenase 1 (P50172 whole entry): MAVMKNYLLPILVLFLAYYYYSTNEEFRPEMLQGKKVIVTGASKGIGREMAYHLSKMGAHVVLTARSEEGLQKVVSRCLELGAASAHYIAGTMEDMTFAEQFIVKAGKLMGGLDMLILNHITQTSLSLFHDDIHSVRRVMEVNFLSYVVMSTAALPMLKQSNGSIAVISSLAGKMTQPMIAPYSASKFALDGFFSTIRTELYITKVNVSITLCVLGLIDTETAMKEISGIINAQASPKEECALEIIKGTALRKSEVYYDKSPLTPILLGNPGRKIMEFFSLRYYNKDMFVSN

Row | SMILES | pEC50 [1] | pIC50 [2]
1 | OCCCc1cccn2c(C3(c4ccc(Cl)cc4)CC3)nnc12 | 4.60 | 5.24
2 | CC(C)(O)CCc1cccn2c(C3(c4ccc(Cl)cc4)CC3)nnc12 | 5.44 | < 5.00
3 | OC(c1cccn2c(C3(c4ccc(Cl)cc4)CC3)nnc12)C1CC1 (stereo not given) | 4.32 | 5.09
4 | CC(C)(CCO)c1cccn2c(C3(c4ccc(Cl)cc4)CC3)nnc12 | 5.89 | 5.94
5 | CC(C)(C(=O)O)c1cccn2c(C3(c4ccc(Cl)cc4)CC3)nnc12 | < 4.30 | < 5.00
